# According to PMC9557039 (iScience, 2022):
# Biological target: UGT720-269-1 (Siraitia grosvenorii, UniProt P0DO66)
# Conditions: 1 mM UDPG, 10 mM MgCl2, 40 °C; crude enzyme in screening assay
# UGT720-269-1, sequence (P0DO66 whole entry): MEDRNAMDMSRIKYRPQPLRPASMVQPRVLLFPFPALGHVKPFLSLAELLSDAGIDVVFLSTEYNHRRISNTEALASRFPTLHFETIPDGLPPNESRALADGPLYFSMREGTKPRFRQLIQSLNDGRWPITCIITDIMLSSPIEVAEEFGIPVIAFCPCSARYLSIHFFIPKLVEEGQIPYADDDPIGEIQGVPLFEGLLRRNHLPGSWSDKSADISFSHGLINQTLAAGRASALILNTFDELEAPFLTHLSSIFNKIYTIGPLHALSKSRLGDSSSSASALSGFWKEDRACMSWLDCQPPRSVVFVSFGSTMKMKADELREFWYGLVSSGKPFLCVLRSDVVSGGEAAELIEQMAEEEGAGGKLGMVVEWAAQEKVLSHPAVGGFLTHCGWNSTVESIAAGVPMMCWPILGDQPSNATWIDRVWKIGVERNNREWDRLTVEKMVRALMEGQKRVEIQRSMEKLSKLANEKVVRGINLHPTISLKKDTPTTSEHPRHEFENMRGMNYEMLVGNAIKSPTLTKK
compound,measurement,value
C[C@H](CC[C@@H](O)C(C)(C)O)[C@H]1CC[C@@]2(C)[C@@H]3CC=C4[C@@H](CC[C@H](O)C4(C)C)[C@]3(C)[C@H](O)C[C@]12C [mogrol],HPLC product analysis,low catalytic property of UGT720-269-1 in the sequential glycosylation of mogrol to IIE
